# Test system: Chikungunya Virus (CHIKV) strain LR2006-OPY1 with GFP modification (CHIK 5'LR)
# Test: Inhibition of Chikungunya virus (CHIKV) production in infected HEK293T cell line (GFP fluorescence)
# Assay type: cell-based
# Conditions: HEK-293T, infected HEK293T cells; for IC50: second round of experiments; for inhibition at 1 µM: compounds at 1 μM, MOI 0.1, 22 h, values above 100 lowered to 100, read-out: % CHIKV Inhibition Mean (n = 2)
# Method: The ability of the compounds to inhibit viral replication was assessed with an experiment in which infected cells were treated by compounds of formula (I) at 1 μM. As a positive control for inhibition of Chikungunya, Ribavirin was used. Toxicity of the compounds was assessed in parallel.
# Human embryonic kidney cells 293T (HEK293T, CRL-11268) were maintained in Dulbecco's modified Eagle's Medium (DMEM, 31966-021, Thermo Fisher Scientific) supplemented with 10% of fetal bovine serum (FBS), penicillin and streptomycin. After removal of the medium, cells were washed with a Ca^2+- and Mg^2+-free salt solution to remove all traces of serum. After aspiration of wash solution, cells were dissociated with 0.25% Trypsin-EDTA solution and incubated 30 s at least in 37° ° C. incubator. Concentration of cell suspension was determined by an automatic cell counter (EVE, NanoEntek) and, if needed, adjusted to 0.33×10^6 cells/mL with DMEM medium supplemented with 10% FBS.
# 100 μL of the cell suspension were dispatched in a ViewPlate-96 Black (6005182, PerkinElmer) and in a transparent 96-well cell culture plate (655180, Greiner bio-one). After an incubation for 24 h at 37° C. under 5% of CO2, compounds were added at the proper concentration.
# An intermediate dilution was prepared with DMSO (D8418, Sigma) at 2 mM in a 96-well V-bottom microplate from the stock solution:
# Mix 1 μL of the 50 mM stock library in 25 μL of DMSO.
# Mix 2 μL of the 25 mM stock library in 25 μL of DMSO.
# An intermediate dilution was prepared with DMSO (D8418, Sigma) at 25 mM in a 96-well V-bottom microplate from the stock solution:
# Mix 2 μL of the 50 mM stock library in 2 μL of DMSO.
# Serial dilutions were performed in 2 μL of DMSO 13 times to reach 0.0015 mM as follows in table III:
# For both screen and determination of IC50 1 μL of each solution was added in a 1 mL Masterblock 96 wells (Greiner bio-one, 780261) containing 1 mL of DMEM medium. As a positive control, 5 μL of a 80 mM Ribavirin solution (R9644, Sigma) is added to 1 mL of DMEM. On the other hand, DMSO is used as a negative control.
# […]. Vector Borne Zoonotic Dis. 2006; 6(4)). This modified virus was used to infect cells at MOI 0.1. […].
# Medium was removed after 22 h at 37° ° C. under 5% of CO2 and cells were washed as described above. 60 μL of RIPA buffer (50 mM Tris-HCl pH8, 100 mM NaCl, 1 mM MgCl2, 1% Triton X-100) was added to cells and incubated for at least 20 min before reading fluorescence signal. Pierce 660 nm Protein Assay Reagent (22660, Thermo scientific) was used to normalize fluorescence signal by protein quantity.
# A first round of experiments has been performed wherein the results are expressed as inhibition percentage, which is calculated as follows, through the following steps:
# 1. Fluorescence intensity (FI) 509 nm/Absorbance 660 nm (A660)=A
# This ratio allows considering the infection (GFP virus) to the protein amount.
# 2. A′=A—background noise of non-infected plate,
# 3. B=Fluorescence intensity (FI)/Absorbance 660 nm (A660) of infected but non treated plates,
# 4. C=A′/B which is then converted as the percentage of infection after treatment, compared to non-treated sample, and subsequently as the […]. For instance, a value of 100 in Table IV here below means that, after treatment, the signal attributed to GFP fluorescence is abolished, which is correlated to the absence of infection.
# This value corresponds to the inhibition's percentage.
# The following Table IV encompasses said C′ value for some compounds as calculated above with a mean of 2 experiments, and the corresponding standard deviation.
# Some values were originally above 100. In these cases, the value has been lowered to 100. This means that some molecules also have an impact on the viability of the cells. In other words, the A value may be lower than the background noise.
# Moreover, for each measure, the test was performed with Ribavirin as control. The value of the inhibition percentage was checked, giving 100%.
SMILES,IC50,inhibition at 1 µM
"Cc1cc(OC(C)C)c(C)cc1Nc1ccc2cccc(Cl)c2n1 [Compound 43, 8-chloro-N-(4-isopropoxy-2,5-dimethylphenyl)quinolin-2-amine]",1 to 200 nM,–
"CCc1cc(OC(C)C)ccc1Nc1ccc2cccc(Cl)c2n1 [Compound 13, 8-chloro-N-(2-ethyl-4-isopropoxyphenyl)quinolin-2-amine]",1 to 200 nM,100%
"Cc1cc(OC(C)C)ccc1Nc1ccc2cccc(Cl)c2n1 [Compound 10, 8-chloro-N-(4-isopropoxy-2-methylphenyl)quinolin-2-amine]",1 to 200 nM,100%
